{"source": "patent US20180235916A1", "about": "“ENHANCING BETA CELL REPLICATION AND/OR SURVIVAL” (priority 2015, published 2018)", "key": {"[1]": {"test_system": "INS-1 cells", "experiment": "INS-1 cell proliferation, 3H-thymidine incorporation assay", "type": "cell-based", "conditions": "for INS-1 cell proliferation, single agents of TSPO experiment: each agent alone, midazolam or clonazepam 100 nM; for effect on GABA-stimulated INS-1 cell proliferation: low doses of PAM with GABA, FIG. 9 panels D-G", "method": "(§1) 1. ^3H-thymidine incorporation assay: INS-1 cells at 1×10^5/well were treated in triplicate with indicated concentrations of individual compounds and cultured in 10% FCS RPMI164 medium in the presence of 0.3 μCi/well of 3H-thymidine for 48 hours (an optimal time period). The cells were harvested and the levels of ^3H-thymidine uptake in individual wells were measured by beta-counter.\nas §1, with “0.3 uCi/well” for “0.3 μCi/well”, “of ^3H-thymidine” for “of 3H-thymidine”\nINS-1 cells at 1×10^5/well were treated in triplicate with indicated concentrations of individual compounds and cultured in 10% FCS RPMI164 medium in the presence of ^3H-thymidine (0.3 μCi/well) for 48 hours (an optimal time period). The levels of ^3H-thymidine uptake in individual wells were measured by a scintillation counter."}, "[2]": {"experiment": "Solubility of test compounds (stock solutions)"}, "[3]": {"test_system": "human islets", "type": "cell-based", "method": "FIG. 2. Human islets (50/well) were incubated in media with, or without, alprazolam (30 ng/ml) for 4 days in the presence of ^3H thymidine. Data shown are the average rate of proliferation relative to that of cultures with media alone (designated as 1). N=two independent studies with triplicate cultures. Data was very similar in both studies.\nN=two independent studies"}, "[4]": {"conditions": "long-term oral GABA, human clinical trials, epileptic seizures and cerebrovascular disorders; cited from earlier work"}, "[5]": {"test_system": "adult human β-cells in islet xenoplants", "conditions": "oral GABA treatment; from less than 1% without; cited from earlier work"}, "[6]": {"conditions": "patients with T1D or T2D, poor glucose control, after 8 weeks of treatment, vs placebo; cited from earlier work"}, "[7]": {"test_system": "EAE", "conditions": "stressed rats; cited from earlier work"}, "[8]": {"conditions": "persons receiving the drug therapeutically; cited from earlier work"}, "[9]": {"molecular_target": "mitochondrial translocator protein (TSPO) (Homo sapiens, UniProt P30536)", "sequence (P30536 whole entry)": "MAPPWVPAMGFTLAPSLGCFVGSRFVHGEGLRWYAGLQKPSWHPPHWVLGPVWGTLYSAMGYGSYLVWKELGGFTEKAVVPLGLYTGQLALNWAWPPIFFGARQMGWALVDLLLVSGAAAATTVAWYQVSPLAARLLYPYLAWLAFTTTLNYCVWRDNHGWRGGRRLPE", "conditions": "cited from earlier work"}, "[10]": {"conditions": "PAM 100 nM with GABA 0.3 mM, 48 hrs"}, "[11]": {"conditions": "PAM alone at 10 or/and 100 nM, FIG. 9 panel B"}, "[12]": {"conditions": "PAM at 10^−7 or 3×10^−8 M with GABA"}, "[13]": {"conditions": "compound alone at 10^−7-10^−8 M"}, "[14]": {"conditions": "GABA 0.3 mM, PK11195 1 uM, 48 hrs"}}, "note": "“Also recorded” adds a separate entry of the source. Read-outs that look alike come from different tables or passages of the source."}
{"smiles": "Cc1ncc2n1-c1ccc(Cl)cc1C(c1ccccc1F)=NC2", "note": "[midazolam]", "values": [{"measurement": "INS-1 cell proliferation", "setting": "[1]; [10]", "result": "enhanced cell proliferation"}, {"measurement": "INS-1 cell proliferation", "setting": "[1]; [11]", "result": "significantly stimulated proliferation of INS-1 cells"}, {"measurement": "effect on GABA-induced INS-1 cell proliferation", "setting": "[1]; [12]", "result": "enhanced GABA-induced INS-1 cell proliferation"}, {"measurement": "INS-1 cell proliferation", "setting": "[1]; PAM at 10^−7 or 3×10^−8 M with GABA at 0.03-0.01 mM", "result": "significantly enhanced INS-1 cell proliferation"}, {"measurement": "toxicity against INS-1 cells", "setting": "[1]; compound alone at 10^−5 M", "result": "slight toxicity"}, {"measurement": "INS-1 cell proliferation", "setting": "[1]; compound alone at 10^−7-3×10^−8 M, FIG. 4B", "result": "significantly enhanced the proliferation of INS cells"}, {"measurement": "INS-1 cell proliferation", "setting": "[1]; [13]", "result": "significantly enhanced INS-1 cell proliferation"}, {"measurement": "INS-1 cell proliferation, single agents of TSPO experiment", "setting": "[1]; [14]", "result": "induced INS-1 cell proliferation"}, {"measurement": "effect on GABA-stimulated INS-1 cell proliferation", "setting": "[1]", "result": "enhanced GABA-stimulated INS-1 cell proliferation"}, {"measurement": "solubility", "setting": "[2]; water", "result": 6.25, "unit": "mM"}]}
{"smiles": "O=C1CN=C(c2ccccc2Cl)c2cc([N+](=O)[O-])ccc2N1", "note": "[clonazepam]", "values": [{"measurement": "INS-1 cell proliferation", "setting": "[1]; [10]", "result": "enhanced cell proliferation"}, {"measurement": "effect on GABA-induced INS-1 cell proliferation", "setting": "[1]; [12]", "result": "significantly enhanced GABA-stimulated INS-1 cell proliferation"}, {"measurement": "INS-1 cell proliferation", "setting": "[1]; compound alone at 10^−4-10^−9 M, 48 hours", "result": "did not significantly change the proliferation of INS-1 cells"}, {"measurement": "INS-1 cell proliferation, single agents of TSPO experiment", "setting": "[1]; [14]", "result": "but not clonazepam or PK11195 induced INS-1 cell proliferation"}, {"measurement": "effect on GABA-stimulated INS-1 cell proliferation", "setting": "[1]", "result": "enhanced GABA-stimulated INS-1 cell proliferation"}]}
{"smiles": "CCC(C)N(C)C(=O)c1cc2ccccc2c(-c2ccccc2Cl)n1", "note": "(centres unmarked) [PK11195]", "values": [{"measurement": "effect of TSPO inhibitor on GABA + midazolam or clonazepam enhanced INS-1 cell proliferation", "setting": "[1]; PK11195 1 uM, GABA 0.3 mM, PAM 100 nM, 48 hrs, FIG. 9 panel H", "result": "not affected by PK11195; also recorded: did not affect the ability of GABA and the tested benzodiazepines to enhance INS-1 cell replication"}, {"measurement": "INS-1 cell proliferation, single agents of TSPO experiment", "setting": "[1]; [14]", "result": "but not clonazepam or PK11195 induced INS-1 cell proliferation"}]}
{"smiles": "NCCCC(=O)O", "note": "[GABA, gamma-aminobutyric acid]", "values": [{"measurement": "human islet cell proliferation", "setting": "[3]; 0.03 mM GABA alone, 4 days, FIG. 3", "result": "did not significantly enhance human islet cell proliferation"}, {"measurement": "human islet cell proliferation", "setting": "[3]; 0.03 mM GABA alone, FIG. 12", "result": "did not significantly enhance human islet cell proliferation"}, {"measurement": "human islet cell proliferation", "setting": "[3]; GABA alone at 0.3-3 mM, FIG. 12", "result": "significantly enhanced human islet cell proliferation"}, {"measurement": "level of GABA alone required to achieve a similar level of proliferation", "setting": "[3]; similar to 0.03 mM GABA + 100 nM alprazolam, FIG. 12", "result": 0.3, "unit": "mM"}, {"measurement": "level of GABA alone required to achieve a similar level of proliferation", "setting": "[3]; similar to 0.03 mM GABA + alprazolam 30 ng/ml, FIG. 3", "result": 0.3, "unit": "mM"}, {"measurement": "INS-1 cell proliferation", "setting": "[1]; 0.01 mM GABA alone, FIG. 9 panels C-G", "result": "did not stimulate INS-1 proliferation"}, {"measurement": "INS-1 cell proliferation", "setting": "[1]; GABA alone at 0.03-0.01 mM", "result": "failed to induce INS-1 cell proliferation; also recorded: did not significantly stimulate INS-1 cell proliferation"}, {"measurement": "INS-1 cell proliferation", "setting": "[1]; GABA alone at 0.03-0.3 mM, FIG. 9 panels C-G", "result": "stimulated INS-1 cell proliferation"}, {"measurement": "INS-1 cell proliferation", "setting": "[1]; GABA alone at 1-0.1 mM", "result": "stimulated INS-1 cell proliferation"}, {"measurement": "INS-1 cell proliferation, single agents of TSPO experiment", "setting": "[1]; [14]", "result": "induced INS-1 cell proliferation"}, {"measurement": "adverse effects", "setting": "[4]", "result": "no adverse effects"}, {"measurement": "clinical benefit", "setting": "[4]", "result": "no clinical benefit"}, {"measurement": "replicating adult human β-cells in islet xenoplants", "setting": "[5]", "result": "2-3%"}]}
{"smiles": "Cc1nnc2n1-c1ccc(Cl)cc1C(c1ccccc1)=NC2", "note": "[alprazolam]", "values": [{"measurement": "human islet cell proliferation", "setting": "[3]; 0.03 mM GABA together with 100 nM alprazolam, FIG. 12", "result": "significantly enhanced human islet cell proliferation"}, {"measurement": "human islet cell proliferation enhanced", "setting": "[3]; 0.03 mM GABA together with alprazolam 30 ng/ml, 4 days, FIG. 3", "result": 138, "unit": "%"}, {"measurement": "human islet cell proliferation promoted compared to cultures with no alprazolam", "setting": "[3]; alprazolam 30 ng/ml alone, no added GABA, 4 days, FIG. 2", "result": "about 123%"}, {"measurement": "human islet cell proliferation relative to the corresponding GABA (alone) dose", "setting": "[3]; co-treatment 100 nM alprazolam and GABA, FIG. 12", "result": "significantly increased human islet cell proliferation"}, {"measurement": "human islet cell proliferation", "setting": "[3]; dose range of alprazolam alone, low concentrations, FIG. 10", "result": "promoted human islet cell proliferation"}, {"measurement": "INS-1 cell proliferation", "setting": "[1]; 0.01 mM GABA in the presence of 30 or 100 nM alprazolam, FIG. 9 panel C", "result": "significantly increased INS-1 cell proliferation"}, {"measurement": "INS-1 cell proliferation", "setting": "[1]; [11]", "result": "significantly stimulated proliferation of INS-1 cells"}, {"measurement": "ability to enhance GABA's pro-mitotic effects on INS-1 cells", "setting": "[1]; alprazolam at high concentration of GABA (0.1 or 0.3 mM)", "result": "had less ability to enhance GABA's pro-mitotic effects"}, {"measurement": "HbA1c levels", "setting": "[6]", "result": "significantly reduced"}, {"measurement": "EAE and inflammation in the spinal cords", "setting": "[7]", "result": "inhibited EAE and inflammation in the spinal cords"}, {"measurement": "concentration in the serum", "setting": "[8]", "result": "10 to 100", "unit": "ng/mL"}, {"measurement": "binding to TSPO", "setting": "[9]", "result": "does not bind to TSPO"}]}
{"smiles": "Cc1cc(NC(=O)/C(C#N)=C(\\O)C2CC2)ccc1C(F)(F)F", "note": "[AP325]", "values": [{"measurement": "effect on GABA-induced INS-1 cell proliferation", "setting": "[1]; AP325 at 10^−7-10^−8 M with GABA, FIG. 7", "result": "significantly enhanced GABA-induced INS-1 cell proliferation"}, {"measurement": "INS-1 cell proliferation (toxicity at high dose)", "setting": "[1]; compound alone at 10^−4-10^−5 M, FIG. 6", "result": "significantly inhibited INS-1 cell proliferation"}, {"measurement": "INS-1 cell proliferation", "setting": "[1]; compound alone at 10^−6-10^−10, FIG. 6", "result": "did not increase significantly the proliferation of INS-1 cells"}, {"measurement": "INS-1 cell proliferation", "setting": "[1]; [13]", "result": "slightly increased the proliferation of INS-1 cells"}, {"measurement": "INS-1 cell proliferation", "setting": "[1]; compound at 3×10^−7-10^−8 M together with 0.03 mM GABA", "result": "significantly promoted INS-1 cell proliferation"}, {"measurement": "INS-1 cell proliferation", "setting": "[1]; compound at 10^−6 M, data not shown", "result": "did not significantly change the proliferation of INS-1 cells"}, {"measurement": "INS-1 cell proliferation", "setting": "[1]; compound at 10^−7 together with 0.01 mM GABA", "result": "significantly stimulated INS-1 cell proliferation"}, {"measurement": "soluble in DMSO", "setting": "[2]; in DMSO", "result": 50, "unit": "mM"}]}
